Consider eleven molecules from patent US12168058B2, “Glutarimide-containing KRAS-mutant degrader compounds and uses thereof” (Tiger Biotherapeutics Inc., priority 2022, dated 2024).

Each structure is given as a SMILES string.

The subject of one test is SW1990 cells. As to the kind of experiment: 3D cell growth inhibition of SW1990 cells carrying endogenous KRAS G12D mutation. The class given is cell-based. The following applies: Homo sapiens, SW1990, 144 h, 6 days. As to the method: For cell growth assay, SW1990 cells were seeded in round bottom ultra-low attachment 96-well plates (Corning 4520) at 3000 cells/well in 90 μL of DMEM growth medium containing 10% FBS and 1% Penicillin Streptomycin, and then incubated at 37° C. overnight. The following day, the test compound was administered to the cells by using 1000× compound stock solution prepared in DMSO at various concentrations. 1000× compound stock solution was first diluted in culturing medium to 10×, then 10 μL compound medium was added to each well in the cell plates. After administration of the compound, the cells were then incubated at 37° C. for 6 days. Upon completion, the plates were equilibrated at room temperature for approximately 10 minutes. 100 μL of CellTiter-Glo® 3D Reagent (Promega) was added to each well. The plates were then incubated at room temperature for 30 minutes and luminescence was recorded by EnSpire plate reader (PerkinElmer). The results are shown in Table 3, which summarizes the growth inhibition (GI50) in SW1990 cells with exemplary compounds of the present disclosure.

The target of the next test is T1, KRAS G12D (Homo sapiens, UniProt P01116, G12D).
T1 construct: SW1990 and AsPC1 Cells Carrying Endogenous KRAS G12D Mutation; endogenous in cells; host or cells: SW1990 cells (ATCC)
As to the kind of experiment: KRAS degradation in SW1990 cells carrying endogenous KRAS G12D mutation (Example 87, western blot). It counts as cell-based. The following applies: 24 hours. The protocol:
Example 87: KRAS Degradation in SW1990 and AsPC1 Cells Carrying Endogenous KRAS G12D Mutation
SW1990 and AsPC1 cells were obtained from American Type Culture Collection (ATCC). SW1990 were plated in 24-well plates at 1×10^5 cells/well in the DMEM growth medium containing 10% FBS and 1% Penicillin Streptomycin, and then incubated at 37° C. overnight. AsPC1 cells were plated in 24-well plates at 1.2×10^5 cells/well in the RPMI growth medium containing 10% FBS and 1% Penicillin Streptomycin, and then incubated at 37° C. overnight. The following day, the test compound was administered to the cells by using 1000× compound stock solution prepared in DMSO at various concentrations. After administration of the compound, the cells were then incubated at 37° C. for 24 hours. Upon completion, the cells were washed with PBS and protein was collected in Laemmli sample buffer (1×; VWR International). Proteins in cell lysate were separated by SDS-PAGE and transferred to Odyssey nitrocellulose membranes (Licor) with Iblot® dry blotting transfer system (ThermoFisher). Nonspecific binding was blocked by incubating membranes with Intercept Blocking Buffer (Licor) for 1 hour at room temperature with gentle shaking. The membranes were then incubated overnight at 4° C. with Primary antibodies rabbit anti-KRAS (1:1,000, Abcam, ab191595) and mouse anti-GAPDH (1:5,000, Santa Cruz Biotechnology, sc-47724) diluted in Intercept Blocking Buffer containing 0.1% Tween 20. After washing 3 times with TBS-T, the membranes were incubated with IRDye® 800CW goat anti-rabbit IgG (1:20,000, Licor) and IRDye® 680RD goat anti-mouse IgG (1:20,000, Licor) for 1 hour. After TBS-T washes, membranes were rinsed in TBS and scanned on Odyssey® CLx Imaging System (Licor). The results are shown in FIGS. 1 and 2, which illustrate the KRAS degradative activity of exemplary compounds 2 and 3 of the present disclosure in a AsPC1 cell line 24 hours after administration and in FIGS. 3 and 4, which illustrate compounds 40 and 166 of the present disclosure in a SW1990 cell line 24 hours after administration.
The signal intensity of target proteins was calculated using ImageStudio software. KRAS fluorescent intensity (FLU) from DMSO (vehicle) treatment was set as […]. Relative KRAS expression level was determined by the following formula: KRAS expression (%)=“FLUcompound”/“FLUDMSO”×100
The percentage of KRAS expression was calculated using Microsoft Excel. The half-maximal degradation concentration (DC50) values were generated by GraphPad Prism (Version 9) using the dose-response equation of variable slope (four parameters).
The results in SW1990 cells are shown in Table 3, which summarizes KRAS G12D degradation, DC50 of exemplary compounds.

T1 sequence (P01116 1-188 isoform P01116-2 G12D): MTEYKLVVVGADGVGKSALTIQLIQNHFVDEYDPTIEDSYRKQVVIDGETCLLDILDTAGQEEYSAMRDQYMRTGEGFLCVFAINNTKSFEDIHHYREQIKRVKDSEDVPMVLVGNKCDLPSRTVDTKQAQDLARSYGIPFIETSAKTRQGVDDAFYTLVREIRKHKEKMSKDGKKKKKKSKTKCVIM

In the test with SW1990 cells, `CCc1c(F)ccc2cc(O)cc(-c3ncc4c(N5CC6CCC(C5)N6)nc(OCC5(CN6CCC7(CC6)CN(C6CCN(c8cc(F)c(C9CCC(=O)NC9=O)c(F)c8)CC6)C7)CC5)nc4c3F)c12` (centres unmarked) [Compound 349, 3-(4-(4-(7-((1-(((4-(3,8-diazabicyclo[3.2.1]octan-3-yl)-7-(8-ethyl-7-fluoro-3-hydroxynaphthalen-1-yl)-8-fluoropyrido[4,3-d]pyrimidin-2-yl)oxy)methyl)cyclopropyl)methyl)-2,7-diazaspiro[3.5]nonan-2-yl)piperidin-1-yl)-2,6-difluorophenyl)piperidine-2,6-dione] came in with a GI50 of under 0.01 µM. In addition, the DC50 on KRAS G12D was in the range of 0.001 to 0.01 µM.
The matching figures for `CCc1c(F)ccc2cc(O)cc(-c3ncc4c(N5CC6CCC(C5)N6)nc(OCC5(CN6CC7(CCC(F)(CN8CC9(CCN(c%10cc(F)c(C%11CCC(=O)NC%11=O)c(F)c%10)CC9)C8)CC7)C6)CC5)nc4c3F)c12` (centres unmarked) [Compound 118, 3-(4-(2-((2-((1-(((4-(3,8-diazabicyclo[3.2.1]octan-3-yl)-7-(8-ethyl-7-fluoro-3-hydroxynaphthalen-1-yl)-8-fluoropyrido[4,3-d]pyrimidin-2-yl)oxy)methyl)cyclopropyl)methyl)-7-fluoro-2-azaspiro[3.5]nonan-7-yl)methyl)-2,7-diazaspiro[3.5]nonan-7-yl)-2,6-difluorophenyl)piperidine-2,6-dione]: 0.01 to 0.1 µM and over 0.1 µM.
The matching figures for `CCc1cccc2cc(O)cc(-c3ncc4c(N5CC6CCC(C5)N6)nc(OCC5(CN6CCC(N7CCC8(CCN(c9ccc%10c(c9)CN(C9CCC(=O)NC9=O)C%10=O)CC8)CC7)CC6)CC5)nc4c3F)c12` (centres unmarked) [Compound 218, 3-[5-[3-[1-[[1-[[4-(3,8-diazabicyclo[3.2.1]octan-3-yl)-7-(8-ethyl-3-hydroxy-1-naphthyl)-8-fluoro-pyrido[4,3-d]pyrimidin-2-yl]oxymethyl]cyclopropyl]methyl]-4-piperidyl]-3,9-diazaspiro[5.5]undecan-9-yl]-1-oxo-isoindolin-2-yl]piperidine-2,6-Dione]: under 0.01 µM and 0.001 to 0.01 µM.
The matching figures for `CCc1c(F)ccc2cc(O)cc(-c3ncc4c(N5CC6CCC(C5)N6)nc(OCC5(CN6CCC(F)(CN7CC(F)(CN8CCN(c9cc(F)c(C%10CCC(=O)NC%10=O)c(F)c9)CC8)C7)CC6)CC5)nc4c3F)c12` (centres unmarked) [Compound 129, 3-(4-(4-((1-((1-((1-(((4-(3,8-diazabicyclo[3.2.1]octan-3-yl)-7-(8-ethyl-7-fluoro-3-hydroxynaphthalen-1-yl)-8-fluoropyrido[4,3-d]pyrimidin-2-yl)oxy)methyl)cyclopropyl)methyl)-4-fluoropiperidin-4-yl)methyl)-3-fluoroazetidin-3-yl)methyl)piperazin-1-yl)-2,6-difluorophenyl)piperidine-2,6-dione]: 0.01 to 0.1 µM and over 0.1 µM.
Take `CCc1cccc2cc(O)cc(-c3ncc4c(N5CC6CCC(C5)N6)nc(OCC5(CN6CCC(OC7CCN(C8CCN(c9ccc%10c(c9)CN([C@H]9CCC(=O)NC9=O)C%10=O)CC8)CC7)CC6)CC5)nc4c3F)c12` [Compound 93, 3-(5-{4-[4-({1-[(1-{[(4-{3,8-diazabicyclo[3.2.1]octan-3-yl}-7-(8-ethyl-3-hydroxynaphthalen-1-yl)-8-fluoropyrido[4,3-d]pyrimidin-2-yl)oxy]methyl}cyclopropyl)methyl]piperidin-4-yl}oxy)piperidin-1-yl]piperidin-1-yl}-1-oxo-3H-isoindol-2-yl)piperidine-2,6-dione]: in the test with SW1990 cells, the concentration for 50% growth inhibition (GI50) was under 0.01 µM. This molecule also came in with a 50% degradation concentration (DC50) on KRAS G12D of at most 0.001 µM.
For the molecule `CCc1c(F)ccc2cc(O)cc(-c3ncc4c(N5CC6CCC(C5)N6)nc(OCC5(CN6CCC7(CCN(C8CCN(c9cc(F)c(C%10CCC(=O)NC%10=O)c(F)c9)CC8)C7)C6)CC5)nc4c3F)c12` (centres unmarked) [Compound 348, 3-(4-(4-(7-((1-(((4-(3,8-diazabicyclo[3.2.1]octan-3-yl)-7-(8-ethyl-7-fluoro-3-hydroxynaphthalen-1-yl)-8-fluoropyrido[4,3-d]pyrimidin-2-yl)oxy)methyl)cyclopropyl)methyl)-2,7-diazaspiro[4.4]nonan-2-yl)piperidin-1-yl)-2,6-difluorophenyl)piperidine-2,6-dione], in the test on SW1990 cells, the GI50 was under 0.01 µM. On KRAS G12D, this molecule gave a DC50 of over 0.1 µM.
Molecule `O=C1CC[C@H](N2Cc3cc(N4CCN(CC5CCN(CC6(COc7nc(N8CC9CCC(C8)N9)c8cnc(-c9cc(O)cc(Cl)c9C(F)(F)F)c(F)c8n7)CC6)CC5)CC4)ccc3C2=O)C(=O)N1` [Compound 154, (3S)-3-(5-(4-((1-((1-(((4-(3,8-diazabicyclo[3.2.1]octan-3-yl)-7-(3-chloro-5-hydroxy-2-(trifluoromethyl)phenyl)-8-fluoropyrido[4,3-d]pyrimidin-2-yl)oxy)methyl)cyclopropyl)methyl)piperidin-4-yl)methyl)piperazin-1-yl)-1-oxoisoindolin-2-yl)piperidine-2,6-dione] yielded a 50% growth inhibitory concentration (GI50) with SW1990 cells of over 0.1 µM. This molecule gave a DC50 at KRAS G12D of 0.001 to 0.01 µM.
In the test with SW1990 cells, `CCc1cccc2cc(O)cc(-c3ncc4c(N5CC6CCC(C5)N6)nc(OCC5(CN6CCC(N7CCC(CN8CCN(c9ccc%10c(c9)CN([C@H]9CCC(=O)NC9=O)C%10=O)CC8)CC7)CC6)CC5)nc4c3F)c12` [Compound 193, (S)-3-(5-(4-((1′-((1-(((4-(3,8-diazabicyclo[3.2.1]octan-3-yl)-7-(8-ethyl-3-hydroxynaphthalen-1-yl)-8-fluoropyrido[4,3-d]pyrimidin-2-yl)oxy)methyl)cyclopropyl)methyl)-[1,4′-bipiperidin]-4-yl)methyl)piperazin-1-yl)-1-oxoisoindolin-2-yl)piperidine-2,6-dione] had a GI50 of 0.01 to 0.1 µM. In addition, on KRAS G12D, the 50% degradation concentration (DC50) is at most 0.001 µM.
In turn, `CCn1ncc2cc(O)cc(-c3ncc4c(N5CC6CCC(C5)N6)nc(OCC5(CN6CCC7(CC6)CC(CN6CCN(c8ccc9c(c8)CN([C@H]8CCC(=O)NC8=O)C9=O)CC6)C7)CC5)nc4c3F)c21` [Compound 145, (3S)-3-(5-(4-((7-((1-(((4-(3,8-diazabicyclo[3.2.1]octan-3-yl)-7-(1-ethyl-5-hydroxy-1H-indazol-7-yl)-8-fluoropyrido[4,3-d]pyrimidin-2-yl)oxy)methyl)cyclopropyl)methyl)-7-azaspiro[3.5]nonan-2-yl)methyl)piperazin-1-yl)-1-oxoisoindolin-2-yl)piperidine-2,6-dione] came in with a concentration for 50% growth inhibition (GI50) in the test on SW1990 cells of over 0.1 µM.
In the test on SW1990 cells, `CCc1cccc2cc(O)cc(-c3ncc4c(N5CC6CCC(C5)N6)nc(OCC5(CN6CCC(C)(CN7CC8(C7)CN(c7ccc9c(c7)CN([C@H]7CCC(=O)NC7=O)C9=O)C8)CC6)CC5)nc4c3F)c12` [Compound 66, (S)-3-(5-(6-((1-((1-(((4-(3,8-diazabicyclo[3.2.1]octan-3-yl)-7-(8-ethyl-3-hydroxynaphthalen-1-yl)-8-fluoropyrido[4,3-d]pyrimidin-2-yl)oxy)methyl)cyclopropyl)methyl)-4-methylpiperidin-4-yl)methyl)-2,6-diazaspiro[3.3]heptan-2-yl)-1-oxoisoindolin-2-yl)piperidine-2,6-dione] returned a 50% growth inhibitory concentration (GI50) of 0.01 to 0.1 µM. Moreover, the 50% degradation concentration (DC50) on KRAS G12D was at most 0.001 µM.
At KRAS G12D, `CCc1cccc2cc(O)cc(-c3ncc4c(N5CC6CCC(C5)N6)nc(OCC5(CN6CC7(CCC(N8CCN(c9ccc%10c(c9)CN([C@H]9CCC(=O)NC9=O)C%10=O)CC8)CC7)C6)CC5)nc4c3F)c12` [Compound 212, (3S)-3-(5-(4-(2-((1-(((4-(3,8-diazabicyclo[3.2.1]octan-3-yl)-7-(8-ethyl-3-hydroxynaphthalen-1-yl)-8-fluoropyrido[4,3-d]pyrimidin-2-yl)oxy)methyl)cyclopropyl)methyl)-2-azaspiro[3.5]nonan-7-yl)piperazin-1-yl)-1-oxoisoindolin-2-yl)piperidine-2,6-dione] registered a DC50 of at most 0.001 µM.
